Experimental data from patent US20240324595A1, “HERBICIDAL COMPOSITIONS” (SYNGENTA CROP PROTECTION AG, priority 2021, published 2024).

Columns and labels:
Assay type in all cases: in vivo
[1] = system: Cenchrus echinatus (CCHEC); experiment: Post-emergence efficacy, Cenchrus echinatus; conditions: 14 DAA
Source text: (§1) When active ingredients are combined, the activity to be expected (E) for any given active ingredient combination obeys the so-called Colby Formula and can be calculated as follows (Colby, S. R., Calculating synergistic and antagonistic responses of herbicide combination, Weeds, Vol. 15, pages 20-22; 1967): • ppm=milligrams of active ingredient (a.i.) per litre • X=% action by first active ingredient using p ppm of the active ingredient • Y=% action by second active ingredient using q ppm of the active ingredient.
(§2) According to Colby, the expected action of active ingredients A+B using p+q ppm of active ingredient is represented by the following formula: […]
(§3) If the action actually observed (O) is greater than the expected action E then the action of the combination is super-additive, i.e. there is a synergistic effect. In mathematical terms, synergism corresponds to a positive value for the difference of (O−E). In the case of purely complementary addition of activities (expected activity), said difference (O−E) is zero. A negative value of said difference (O−E) signals a loss of activity compared to the expected activity.
(§4) The efficacy of various compositions of the present invention were tested against plants including the following species: Amaranthus retroflexus (AMARE) Cenchrus echinatus (CCHEC), Echinochloa crus-gali (ECHCG), Eleusine indica (ELEIN), Setaria faberi (SETFA) Sorghum halapense (SORHA) and Digitaria insularis (TRCIN). The compositions are applied post-emergence, and the tests evaluated at certain days-after-application (DAA) as indicated. The tests were evaluated (100=total damage to plant; 0=no damage to plant), and the results are shown below in tables B1 to B13.

[2] = system: Echinochloa crus-gali (ECHCG); experiment: Post-emergence efficacy, Echinochloa crus-gali
Source text: as §1, §2, §3, §4

[3] = system: Digitaria insularis (TRCIN); experiment: Post-emergence efficacy, Digitaria insularis
Source text: as §1, §2, §3, §4

Setaria faberi (SETFA) = experiment: Post-emergence efficacy, Setaria faberi; conditions: 15 DAA
Source text: as §1, §2, §3, §4

Eleusine indica (ELEIN) = experiment: Post-emergence efficacy, Eleusine indica; conditions: 15 DAA
Source text: as §1, §2, §3, §4

[4] = system: Sorghum halapense (SORHA); experiment: Post-emergence efficacy, Sorghum halapense; conditions: 15 DAA
Source text: as §1, §2, §3, §4

[5] = system: Amaranthus retroflexus (AMARE); experiment: Post-emergence efficacy, Amaranthus retroflexus; conditions: 13 DAA
Source text: as §1, §2
If the action actually observed (O) is greater than the expected action E then the action of the combination is super-additive, i.e. there is a synergistic effect. […]
as §4

`O=C(O)CNCP(=O)(O)O` [Compound B2c, glyphosate, reference compound] was tested, and the “Observed (100=total damage to plant; 0=no damage)” value ([1]; rate 125 g/ha) was 1.

In the case of `C#CCN1C(=O)C(F)(F)Oc2cc(F)c(-n3c(=O)n(C)c(=S)n(C)c3=O)cc21` [Compound B3k, trifludimoxazin, reference compound], the “Observed (100=total damage to plant; 0=no damage)” value ([2]; Table B11, POST, 20 DAA, rate 4 g/ha) is reported as 38 and the “Observed (100=total damage to plant; 0=no damage)” value ([2]; Table B11, POST, 20 DAA, rate 30 g/ha) is reported as 31.

In the case of `CP(=O)(O)CC[C@H](N)C(=O)O` [Compound B1c, L-glufosinate/glufosinate-P, reference compound], the “Observed (100=total damage to plant; 0=no damage)” value ([3]; POST, 14 DAA, rate 600 g/ha) is reported as 60.

For `COC(=O)CCNC(=O)C(C)Sc1cc(-n2c(=O)cc(C(F)(F)F)n(C)c2=O)c(F)cc1Cl` (stereo not drawn) [Compound B3j, tiafenacil, reference compound], the “Observed (100=total damage to plant; 0=no damage)” value ([2]; Table B10, POST, 15 DAA, rate 8 g/ha) was 40 and the “Observed (100=total damage to plant; 0=no damage)” value ([2]; Table B10, POST, 15 DAA, rate 16 g/ha) was 55.

With `CCOC(=O)C1(C)CC(c2cc(-n3c(=O)cc(C(F)(F)F)n(C)c3=O)c(F)cc2Cl)=NO1` (stereo not drawn) [Compound B3l, 3-(2-chloro-4-fluoro-5-(3-methyl-2,6-dioxo-4-trifluoromethyl-3,6-dihydropyrimidin-1(2H)-yl)phenyl)-5-methyl-4,5-dihydroisoxazole-5-carboxylic acid ethyl ester, reference compound] the “Observed (100=total damage to plant; 0=no damage)” value ([2]; Table B12, POST, 13 DAA, rate 0.94 g/ha (B3l)) was 33 and the “Observed (100=total damage to plant; 0=no damage)” value ([2]; Table B12, POST, 13 DAA, rate 3.75 g/ha) was 73.

`O=C(O)CC[n+]1ccc(-c2cccnn2)cn1.[Cl-]` [Compound B4c.27] was tested, and the “Observed (100=total damage to plant; 0=no damage)” value (Setaria faberi (SETFA); rate 37.5 g/ha) was 37.

In the case of `CCOC(=O)COc1ncccc1Oc1cc(-n2c(=O)cc(C(F)(F)F)n(C)c2=O)c(F)cc1Cl` [Compound B3c, epyrifenacil, reference compound], the “Observed (100=total damage to plant; 0=no damage)” value ([3]; POST, 16 DAA, rate 1 g/ha) is reported as 33 and the “Observed (100=total damage to plant; 0=no damage)” value (Eleusine indica (ELEIN); rate 25 g/ha (B3c)) is reported as 16.

`CC#Cc1ccc(C2=C(OC(=O)OC)C3CCC(C3)C2=O)c(OC)c1` (stereo not drawn) [Ic] was tested, and the “Observed (100=total damage to plant; 0=no damage)” value (Setaria faberi (SETFA); rate 3 g/ha) was 10, the “Observed (100=total damage to plant; 0=no damage)” value (Setaria faberi (SETFA); rate 6 g/ha) was 29 and the “Observed (100=total damage to plant; 0=no damage)” value ([3]; POST, 14 DAA, rate 100 g/ha) was 5. The “Observed (100=total damage to plant; 0=no damage)” value ([3]; POST, 16 DAA, rate 3.125 g/ha) was 15, the “Observed (100=total damage to plant; 0=no damage)” value ([3]; Table B8, POST, 14 DAA, rate 0.47 g/ha) was 0 and the “Observed (100=total damage to plant; 0=no damage)” value ([3]; Table B8, POST, 14 DAA, rate 0.94 g/ha) was 0. For the same molecule, the “Observed (100=total damage to plant; 0=no damage)” value ([3]; Table B8, POST, 14 DAA, rate 1.88 g/ha) was 11, the “Observed (100=total damage to plant; 0=no damage)” value ([4]; rate 3.125 g/ha) was 28 and the “Observed (100=total damage to plant; 0=no damage)” value ([4]; rate 6.25 g/ha) was 45. The “Observed (100=total damage to plant; 0=no damage)” value ([4]; rate 12.5 g/ha) was 75, the “Observed (100=total damage to plant; 0=no damage)” value ([1]; rate 3 g/ha) was 50 and the “Observed (100=total damage to plant; 0=no damage)” value ([1]; rate 6 g/ha) was 72. The “Observed (100=total damage to plant; 0=no damage)” value ([1]; rate 12.5 g/ha) was 79, the “Observed (100=total damage to plant; 0=no damage)” value ([1]; rate 25 g/ha) was 79 and the “Observed (100=total damage to plant; 0=no damage)” value ([2]; Table B7, POST, 20 DAA, rate 3.125 g/ha) was 14. The “Observed (100=total damage to plant; 0=no damage)” value ([2]; Table B7, POST, 20 DAA, rate 25 g/ha) was 87, the “Observed (100=total damage to plant; 0=no damage)” value ([2]; Table B10, POST, 15 DAA, rate 3.125 g/ha) was 45 and the “Observed (100=total damage to plant; 0=no damage)” value ([2]; Table B10, POST, 15 DAA, rate 6.25 g/ha) was 50. The “Observed (100=total damage to plant; 0=no damage)” value ([2]; Table B10, POST, 15 DAA, rate 12.5 g/ha) was 60, the “Observed (100=total damage to plant; 0=no damage)” value ([2]; Table B11, POST, 20 DAA, rate 3.125 g/ha) was 14 and the “Observed (100=total damage to plant; 0=no damage)” value ([2]; Table B12, POST, 13 DAA, rate 0.94 g/ha (Ic)) was 3. The “Observed (100=total damage to plant; 0=no damage)” value ([2]; Table B12, POST, 13 DAA, rate 1.88 g/ha) was 24, the “Observed (100=total damage to plant; 0=no damage)” value ([2]; Table B12, POST, 13 DAA, rate 7.5 g/ha) was 54 and the “Observed (100=total damage to plant; 0=no damage)” value ([2]; Table B13, POST, 15 DAA, rate 3.125 g/ha) was 45. For the same molecule, the “Observed (100=total damage to plant; 0=no damage)” value ([2]; Table B13, POST, 15 DAA, rate 6.25 g/ha) was 50, the “Observed (100=total damage to plant; 0=no damage)” value ([2]; Table B13, POST, 15 DAA, rate 12.5 g/ha) was 60 and the “Observed (100=total damage to plant; 0=no damage)” value ([5]; rate 7.5 g/ha) was 4. The “Observed (100=total damage to plant; 0=no damage)” value (Eleusine indica (ELEIN); rate 12.5 g/ha) was 72 and the “Observed (100=total damage to plant; 0=no damage)” value (Eleusine indica (ELEIN); rate 25 g/ha (Ic)) was 79.

With `CCOC(=O)C(Cl)Cc1cc(-n2nc(C)n(C(F)F)c2=O)c(F)cc1Cl` (stereo not drawn) [Compound B3b, carfentrazone-ethyl, reference compound] the “Observed (100=total damage to plant; 0=no damage)” value ([5]; rate 3.75 g/ha) was 75.

`C#CCN1C(=O)COc2cc(F)c(N3C(=O)C4=C(CCCC4)C3=O)cc21` [Compound B3d, flumioxazin, reference compound] was tested, and the “Observed (100=total damage to plant; 0=no damage)” value ([2]; Table B7, POST, 20 DAA, rate 4 g/ha) was 8 and the “Observed (100=total damage to plant; 0=no damage)” value ([2]; Table B7, POST, 20 DAA, rate 15 g/ha) was 49.

With `Cc1nn(-c2cc(NS(C)(=O)=O)c(Cl)cc2Cl)c(=O)n1C(F)F` [Compound B3i, sulfentrazone, reference compound] the “Observed (100=total damage to plant; 0=no damage)” value ([4]; rate 60 g/ha) was 13.

In the case of `CS(=O)(=O)NC(=O)c1cc(Oc2ccc(C(F)(F)F)cc2Cl)ccc1[N+](=O)[O-]` [Compound B3e, fomesafen, reference compound], the “Observed (100=total damage to plant; 0=no damage)” value ([3]; Table B8, POST, 14 DAA, rate 7.5 g/ha) is reported as 15, the “Observed (100=total damage to plant; 0=no damage)” value ([3]; Table B8, POST, 14 DAA, rate 15 g/ha) is reported as 20 and the “Observed (100=total damage to plant; 0=no damage)” value ([3]; Table B8, POST, 14 DAA, rate 30 g/ha) is reported as 35.

In the case of `c1cc[n+]2c(c1)-c1cccc[n+]1CC2` [Compound B4b1, diquat dibromide, reference compound], the “Observed (100=total damage to plant; 0=no damage)” value ([2]; Table B13, POST, 15 DAA, rate 60 g/ha) is reported as 43.
